Common to all, as to assay: NCI-60 cell line screen, 48 h
The subject of assay [1] is COLO 205.
The test system of assay [2] is SF-268.
The subject of assay [3] is TK-10.
The test system of assay [4] is SK-MEL-5.
In assay [5] the test system is DU-145.
The test system of assay [6] is CAKI-1.
The test system of assay [7] is NCI-H460.
The subject of assay [8] is UO-31.
In assay [9] the test system is LOX IMVI.
For assay [10], the system named is SNB-75.
Assay [11] has as its system M14.
The test system of assay [12] is SNB-19.
The test system of assay [13] is SR.
In assay [14] the test system is NCI-H226.
Assay [15] relates to A498.
Assay [16] concerns HCT-116.
The test system of assay [17] is OVCAR-8.
Assay [18] has as its system OVCAR-3.
In assay [19] the test system is CCRF-CEM.
For assay [20], the system named is SW-620.

The source of these data is ChEMBL document CHEMBL1201862, “PubChem BioAssay data set” (2004).

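Growth conditions: 96-well plates. Treatment: test compound, 48 hours, 5 concentrations. Analysis: linear interpolation between bracketing concentrations; unreached endpoints set to highest concentration. GI50 marks 50% less growth.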 Activity calls are given as the source filed them. Rule as the data show it: active = GI50 up to about 1.1 µM and inactive = higher.

In the case of `Brc1ccc2c([C@H]3CN[C@@H](c4c[nH]c5cc(Br)ccc45)CN3)c[nH]c2c1`, the GI50 in [1] is 1.57 µM (inactive); in [2], 6.79 µM (inactive); in [3], 7.33 µM (inactive); in [4], 4.91 µM (inactive); in assay [5], 2.96 µM (inactive); in assay [6] it was 2.94 µM (inactive). In addition, the GI50 in assay [7] is 1.9 µM (inactive); in assay [8] it was 4.16 µM (inactive); in [9] it was 1.83 µM (inactive); in assay [10], 5.27 µM (inactive); in assay [11], 2.24 µM (inactive); in assay [12], 9.14 µM (inactive). For the same compound, the GI50 in [13] was 2.27 µM (inactive); in assay [14] it was 7.26 µM (inactive); in [15], 1.87 µM (inactive); in assay [16], 1.66 µM (inactive); in assay [17], 1.84 µM (inactive); in assay [18], 1.94 µM (inactive). In addition, the GI50 in [19] was 2.84 µM (inactive); in assay [20], 1.71 µM (inactive).
On to `Cn1c2c3ccc(Cl)cc3nc-2c(Cl)c2ccccc21`, for which the GI50 was 12.2 µM (inactive) in assay [1]; 14.2 µM (inactive) in [2]; 16.6 µM (inactive) in assay [3]; 16.4 µM (inactive) in [4]; 15.1 µM (inactive) in assay [5]; 17.3 µM (inactive) in assay [6]. Also, the GI50 was 12.7 µM (inactive) in assay [7]; 16.3 µM (inactive) in [8]; 13.3 µM (inactive) in assay [9]; 17.1 µM (inactive) in assay [10]; 20.9 µM (inactive) in assay [11]; 22.9 µM (inactive) in [12]. Moreover, the GI50 was 6.15 µM (inactive) in assay [13]; 23 µM (inactive) in assay [14]; 19.9 µM (inactive) in [15]; 1.71 µM (inactive) in assay [16]; 20.2 µM (inactive) in assay [17]; 14 µM (inactive) in [18]. The GI50 was 3.86 µM (inactive) in assay [19] and 11.9 µM (inactive) in [20].
As to `O=C1/C(=C\c2ccccc2)c2ccccc2N1Cc1ccccc1`, the GI50 in assay [1] is 16.6 µM (inactive); in [2], 9.25 µM (inactive); in assay [3] it was 12.9 µM (inactive); in [4] it was 11 µM (inactive); in assay [5], 12.4 µM (inactive); in assay [6], 6.67 µM (inactive). For the same compound, the GI50 in assay [7] is 12.8 µM (inactive); in [8], 10 µM (inactive); in assay [9], 7.45 µM (inactive); in assay [10], 9.66 µM (inactive); in [11] it was 9.16 µM (inactive); in assay [12] it was 10.3 µM (inactive). In addition, the GI50 in assay [13] is 2.04 µM (inactive); in [14], 10.8 µM (inactive); in assay [15], > 10 µM (inactive); in [16], 4.72 µM (inactive); in [17], 11.6 µM (inactive); in assay [18] it was 3.99 µM (inactive). Also, the GI50 is 3.15 µM (inactive) in assay [19] and 9.84 µM (inactive) in assay [20].
On to `CCOCC(=O)N[C@H]1CCc2cc(OC(=O)COCC)c(OC)c(OC)c2-c2ccc(SC)c(=O)cc21`, for which the GI50 in assay [1] was 0.0219 µM (active); in assay [2], 0.0384 µM (active); in [3] it was 0.459 µM (active); in assay [4] it was 0.00478 µM (active); in assay [5], 0.0222 µM (active); in [6], 0.15 µM (active). Further, the GI50 in assay [7] is 0.0327 µM (active); in [8], 0.914 µM (active); in assay [9] it was 0.0303 µM (active); in [10], 0.0461 µM (active); in [11], 0.0256 µM (active); in assay [12], 0.885 µM (active). For the same compound, the GI50 was 0.0159 µM (active) in assay [13]; 0.0301 µM (active) in assay [14]; 0.0472 µM (active) in [15]; 0.0175 µM (active) in assay [16]; 0.0307 µM (active) in assay [17]; 0.01 µM (active) in assay [18]. In addition, the results for the GI50 in assay [19] and in assay [20] were 0.0231 µM (active) and 0.0171 µM (active), respectively.
